± gives the expanded uncertainty stated by the source.
Conditions: Liquid, Ebulliometric method (Recirculating still)

CC(=O)OC(C)C [1-methylethyl ethanoate]
vapor or sublimation pressure (361.45 K): 101.3 ± 0.8 kPa

CC(C)O [propan-2-ol]
vapor or sublimation pressure (355.33 K): 101.3 ± 0.8 kPa

C[S+](C)[O-] [dimethyl sulfoxide]
vapor or sublimation pressure (463.38 K): 101.3 ± 0.8 kPa

Source: the NIST ThermoML archive (doi:10.1021/acs.jced.6b00040)
